From US20060167001A1, “Pyridazinone-derivatives as pde4 inhibitors” (priority 2002, published 2006) come the findings set out here.

As usually defined, the melting point is the temperature, or range, at which the solid turns liquid.

Counter-ions that a name gives are not always drawn. Where only a bound is given, the exact number is not on record here.

The target of one data set is PDE4 (cAMP-specific) (Homo sapiens, UniProt Q07343). Put plainly: Inhibition of PDE4 activity, Method A (radioactive cAMP hydrolysis, cytosol of human PMNL). In kind it is biochemical. The note with it: cAMP substrate, 1 μM motapizone.
For a further data set, the target named is T1, PDE3 (cGMP-inhibited) (Homo sapiens, UniProt Q14432).
T1 construct: investigated in homogenates of human platelets; from tissue; host or cells: homogenates of human platelets
Put plainly: Inhibition of PDE3 activity, Method A (homogenates of human platelets). The data set is classed as biochemical. Here is the method:
The PDE activity was determined according to Thompson et al. (Adv Cycl Nucl Res 10: 69-92, 1979) with some modifications (Bauer and Schwabe, Naunyn-Schmiedeberg's Arch Pharmacol 311: 193-198, 1980). The test samples contained 20 mM Tris (pH 7.4), 5 mM MgCl2, 0.5 μM cAMP or cGMP, [^3H]cAMP or [^3H]cGMP (about 30 000 cpm/sample), the PDE isoenzyme-specific additives described in greater detail below, the indicated concentrations of inhibitor and an aliquot of the enzyme solution in a total sample volume of 200 μl. Dilution series of the compounds according to the invention were prepared in DMSO and further diluted in the samples [1:100 (v/v)], to give the desired end concentration of the inhibitors at a DMSO concentration of 1% (v/v), which for its part has only a minute effect on PDE activity.
After preincubation at 37° C. for 5 minutes, the reaction was started by addition of the substrate (cAMP or cGMP). The samples were incubated at 37° C. for a further 15 min. The reaction was terminated by addition of 50 μl 0.2 N HCl. After cooling on ice for 10 minutes and addition of 25 μg 5′-nucleotidase (snake venom from Crotalus atrox), the mixture was again incubated at 37° C. for 10 mih and the samples were then applied to QAE Sephadex A-25 columns (sample volume 1 ml). The columns were eluted with 2 ml of 30 mM ammonium formate (pH 6.0). The radioactivity of the eluate was measured and corrected by the corresponding blank values (measured in the presence of denatured protein); the blank values were less than 5% of the total radioactivity. In no case did the proportion of hydrolyzed nucleotide exceed 30% of the original substrate concentration.
PDE3 (cGMP-inhibited) was investigated in homogenates of human platelets (see Schudt et al., Biochem Pharmacol 1991: 42, 153-162) using cAMP or cGMP as substrate.
The IC50 values were determined from the concentration-inhibition curves by nonlinear regression.

Another data set concerns the target T2, PDE4B2 (Homo sapiens, UniProt Q07343).
T2 construct: made in house; host or cells: baculovirus, SF21 insect cells (virus made in SF9); 1000 x g supernatant of the homogenate
Put plainly: Inhibition of recombinant PDE4B2, Method B (SPA test). The data set is classed as biochemical. As to conditions: 0.5 μM cAMP, read-out: PDE4 Inhibition [measured as −logIC50 (mol/l)] (converted). On the procedure:
The PDE4B2 (GB no. M97515) was a gift of Prof. M. Conti (Stanford University, USA). It was amplified from the original plasmid (pCMV5) via PCR with primers Rb9 (5′-[…]-3′) and Rb10 (5′-[…]-3′) and cloned into the pCR-Bac vector (Invitrogen, Groningen, NL).
(§1) The recombinant baculovirus was prepared by means of homologous recombination in SF9 insect cells. The expression plasmids were cotransfected with Bac-N-Blue (Invitrogen, Groningen, NL) or Baculo-Gold DNA (Pharmingen, Hamburg) using a standard protocol (Pharmingen, Hamburg). Wt virus-free recombinant virus supernatants were selected using plaque assay methods. After that, high-titre virus supernatants were prepared by amplifying 3 times. PDEs were expressed in SF21 cells by infecting 2×10^6 cells/ml with an MOI (multiplicity of infection) between 1 and 10 in serum-free SF900 medium (Life Technologies, Paisley, UK). The cells were cultured at 28° C. for 48-72 hours, after which they were pelleted for 5-10 min at 1000 g and 4° C.
(§2) The SF21 insect cells were resuspended, at a concentration of approx. 10^7 cells/ml, in ice-cold (4° C.) homogenization buffer (20 mM Tris, pH 8.2, containing the following additions: 140 mM NaCl, 3.8 mM KCl, 1 mM EGTA, 1 mM MgCl2, 10 mM β-mercaptoethanol, 2 mM benzamidine, 0.4 mM Pefablock, 10 μM leupeptin, 10 μM pepstatin A, 5 μM trypsin inhibitor) and disrupted by ultrasonication. The homogenate was then centrifuged for 10 min at 1000× g and the supernatant was stored at −80° C. until subsequent use (see below). The protein content was determined by the Bradford method (BioRad, Munich) using BSA as the standard.
PDE3A1 and PDE4B2 activities were inhibited by the said compounds in a modified SPA (scintillation proximity assay) test, supplied by Amersham Biosciences (see procedural instructions “phosphodiesterase [3H]cAMP SPA enzyme assay, code TRKQ 7090”), carried out in 96-well microtitre plates (MTP's). The test volume is 100 μl and contains 20 mM Tris buffer (pH 7.4), 0.1 mg of BSA (bovine serum albumin)/ml, 5 mM Mg^2+, 0.5 μM cAMP (including about 50,000 cpm of [3H]cAMP), 1 μl of the respective substance dilution in DMSO and sufficient recombinant PDE (1000× g supernatant, see above) to ensure that 10-20% of the cAMP is converted under the said experimental conditions. […] After a preincubation of 5 min at 37° C., the reaction is started by adding the substrate (cAMP) and the assays are incubated for a further 15 min; after that, they are stopped by adding SPA beads (50 μl). In accordance with the manufacturer's instructions, the SPA beads had previously been resuspended in water, but were then diluted 1:3 (v/v) in water; the diluted solution also contains 3 mM IBMX to ensure a complete PDE activity stop. After the beads have been sedimented (>30 min), the MTP's are analyzed in commercially available luminescence detection devices. The corresponding IC50 values of the compounds for the inhibition of PDE activities are determined from the concentration-effect curves by means of non-linear regression.

A further data set deals with T3, PDE3A1 (Homo sapiens, UniProt Q14432).
T3 construct: The whole ORF was subcloned into pBacPak9 (Clontech, Palo Alto) using EcoRi; made in house; host or cells: baculovirus (pBacPak9), SF21 insect cells (virus made in SF9); 1000 x g supernatant of the homogenate
In words: Inhibition of recombinant PDE3A1, Method B (SPA test). The data set is classed as biochemical. As to conditions: 0.5 μM cAMP, read-out: PDE3 Inhibition [measured as −logIC50 (mol/l)] (converted).
From the text: The cDNA for PDE3A1 (GB no. U36798) was isolated in 2 steps using PCR. A 3′ terminal cDNA fragment of PDE3A1 was amplified from fat cells cDNA (Clontech, Palo Alto) using primers OZ 458 (5′-[…]-3′) and OZ 457 (5′-[…]-3′). The 5′ terminal cDNA fragment of PDE3A1 was amplified from Placenta cDNA (Clontech, Palo Alto) using primers OZ 455 (5′-[…]-3′) and OZ 456 (5′-[…]-3′). The PCR products were cloned into pCR2.1-Topo (Invitrogen, Groningen, NL) under standard conditions (the manufacturer's instructions). The 3′ fragment was cut out with HindII and cloned into the HindII site of the construct carrying the 5′ fragment. The whole ORF was subcloned into pBacPak9 (Clontech, Palo Alto) using EcoRi. Aminoacid 12 is Aspartic Acid like in sequence GB no. AJ005036, aa 69 and aa 110 are respective Serine and Glycine like in both sequences GB no. AJ005036 and GB no. M91667.
as §1, §2
PDE3A1 and PDE4B2 activities were inhibited by the said compounds in a modified SPA (scintillation proximity assay) test, supplied by Amersham Biosciences (see procedural instructions “phosphodiesterase [3H]cAMP SPA enzyme assay, code TRKQ 7090”), carried out in 96-well microtitre plates (MTP's). The test volume is 100 μl and contains 20 mM Tris buffer (pH 7.4), 0.1 mg of BSA (bovine serum albumin)/ml, 5 mM Mg^2+, 0.5 μM cAMP (including about 50,000 cpm of [3H]cAMP), 1 μl of the respective substance dilution in DMSO and sufficient recombinant PDE (1000× g supernatant, see above) to ensure that 10-20% of the cAMP is converted under the said experimental conditions. […] After a preincubation of 5 min at 37° C., the reaction is started by adding the substrate (cAMP) and the assays are incubated for a further 15 min; after that, they are stopped by adding SPA beads (50 μl). […] After the beads have been sedimented (>30 min), the MTP's are analyzed in commercially available luminescence detection devices. The corresponding IC50 values of the compounds for the inhibition of PDE activities are determined from the concentration-effect curves by means of non-linear regression.

T3 sequence (Q14432 whole entry): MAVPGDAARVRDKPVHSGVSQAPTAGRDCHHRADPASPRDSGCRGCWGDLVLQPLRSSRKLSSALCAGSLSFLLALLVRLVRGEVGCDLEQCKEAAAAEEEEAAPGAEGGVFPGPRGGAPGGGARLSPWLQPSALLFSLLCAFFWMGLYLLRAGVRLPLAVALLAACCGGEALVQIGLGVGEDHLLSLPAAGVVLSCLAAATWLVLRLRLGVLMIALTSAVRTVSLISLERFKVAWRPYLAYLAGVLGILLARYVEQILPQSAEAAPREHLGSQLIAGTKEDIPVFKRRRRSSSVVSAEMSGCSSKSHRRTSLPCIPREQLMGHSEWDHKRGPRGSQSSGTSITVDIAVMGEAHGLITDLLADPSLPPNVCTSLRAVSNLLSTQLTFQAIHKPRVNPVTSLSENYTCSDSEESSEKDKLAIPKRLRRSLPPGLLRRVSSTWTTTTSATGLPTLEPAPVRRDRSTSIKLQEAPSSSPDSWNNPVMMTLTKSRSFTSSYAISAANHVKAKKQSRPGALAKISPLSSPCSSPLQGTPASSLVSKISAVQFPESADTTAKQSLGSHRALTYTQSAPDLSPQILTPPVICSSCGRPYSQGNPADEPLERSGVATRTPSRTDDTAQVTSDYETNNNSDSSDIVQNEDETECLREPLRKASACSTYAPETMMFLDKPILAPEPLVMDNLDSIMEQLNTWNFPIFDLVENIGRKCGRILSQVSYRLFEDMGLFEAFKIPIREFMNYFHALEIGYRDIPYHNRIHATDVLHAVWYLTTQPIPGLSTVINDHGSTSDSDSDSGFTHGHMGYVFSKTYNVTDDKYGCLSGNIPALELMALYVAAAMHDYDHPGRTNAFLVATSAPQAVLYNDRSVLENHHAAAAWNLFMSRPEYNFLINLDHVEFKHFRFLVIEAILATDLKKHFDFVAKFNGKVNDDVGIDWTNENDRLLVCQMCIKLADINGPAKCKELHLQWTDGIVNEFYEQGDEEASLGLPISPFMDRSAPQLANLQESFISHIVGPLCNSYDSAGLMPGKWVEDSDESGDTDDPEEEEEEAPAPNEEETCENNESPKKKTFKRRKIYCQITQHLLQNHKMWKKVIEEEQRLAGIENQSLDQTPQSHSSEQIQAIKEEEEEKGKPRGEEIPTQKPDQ
T2 sequence (Q07343 1-564 isoform Q07343-2): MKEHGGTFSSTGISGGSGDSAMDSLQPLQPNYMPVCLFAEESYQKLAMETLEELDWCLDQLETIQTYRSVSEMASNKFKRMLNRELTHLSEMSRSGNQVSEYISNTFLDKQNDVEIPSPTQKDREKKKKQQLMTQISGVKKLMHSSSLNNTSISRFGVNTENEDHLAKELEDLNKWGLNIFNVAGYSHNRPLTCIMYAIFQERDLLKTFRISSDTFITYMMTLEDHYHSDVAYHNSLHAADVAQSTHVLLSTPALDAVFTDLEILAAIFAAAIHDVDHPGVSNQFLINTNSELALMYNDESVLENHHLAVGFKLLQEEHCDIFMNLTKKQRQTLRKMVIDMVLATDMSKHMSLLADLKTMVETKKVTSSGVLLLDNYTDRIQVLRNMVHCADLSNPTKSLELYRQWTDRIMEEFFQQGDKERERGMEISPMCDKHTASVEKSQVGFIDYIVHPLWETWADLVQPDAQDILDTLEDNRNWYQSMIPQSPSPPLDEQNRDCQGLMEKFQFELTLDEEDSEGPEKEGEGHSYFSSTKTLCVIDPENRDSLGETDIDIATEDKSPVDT
T1 sequence (Q14432 whole entry): as the sequence (Q14432 whole entry) above
Sequence of PDE4 (cAMP-specific) (Q07343 whole entry): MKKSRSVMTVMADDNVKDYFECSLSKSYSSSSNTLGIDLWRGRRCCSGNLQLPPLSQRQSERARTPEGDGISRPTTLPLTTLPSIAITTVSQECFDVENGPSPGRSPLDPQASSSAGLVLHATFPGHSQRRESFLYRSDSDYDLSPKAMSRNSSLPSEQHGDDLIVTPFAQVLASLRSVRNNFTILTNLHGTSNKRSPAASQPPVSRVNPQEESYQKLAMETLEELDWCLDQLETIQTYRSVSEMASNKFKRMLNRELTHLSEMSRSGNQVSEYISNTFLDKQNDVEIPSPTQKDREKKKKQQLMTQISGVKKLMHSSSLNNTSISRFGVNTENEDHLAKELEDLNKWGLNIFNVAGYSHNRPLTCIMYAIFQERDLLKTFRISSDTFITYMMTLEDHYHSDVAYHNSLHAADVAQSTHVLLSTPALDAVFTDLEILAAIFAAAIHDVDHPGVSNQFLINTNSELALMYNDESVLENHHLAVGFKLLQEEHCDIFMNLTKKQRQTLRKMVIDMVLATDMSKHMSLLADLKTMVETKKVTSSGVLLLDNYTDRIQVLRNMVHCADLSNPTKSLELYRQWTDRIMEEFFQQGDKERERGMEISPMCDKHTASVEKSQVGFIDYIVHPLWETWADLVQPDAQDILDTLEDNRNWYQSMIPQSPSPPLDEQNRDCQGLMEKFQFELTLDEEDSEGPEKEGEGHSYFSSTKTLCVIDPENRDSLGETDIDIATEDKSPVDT

As to `COc1ccc(C2=NN(C3CCN(S(=O)(=O)c4cccs4)CC3)C(=O)CC2)cc1OC` [Compound 19, 6-(3,4-Dimethoxy-phenyl)-2-[1-(thiophene-2-sulfonyl)-piperidin-4-yl]-45-dihydro-2H-pyridazin-3-one], the “PDE4 Inhibition [measured as −logIC50 (mol/l)]” value on PDE4 (cAMP-specific) is reported as 8.3 -log(mol/l). Besides, the “PDE3 Inhibition [measured as −logIC50 (mol/l)]” value at PDE3 (cGMP-inhibited) was 6.9 −log(mol/l) (pIC50).

The molecule `COc1ccc(C2=NN(C3CCN(C(=O)CN4CCN(C(c5ccccc5)c5ccccc5)CC4)CC3)C(=O)CC2)cc1OC.Cl.Cl` [Compound 31, 6-(3,4-Dimethoxy-phenyl)-2-(1-{2-[4-(1,1-diphenyl-methyl)-piperazin-1-yl]-ethanoyl}-piperidin-4-yl)-4,5-dihydro-2H-pyridazin-3-one dihydrochloride] returned a melting point of 126 to 127 °C. Moreover, the IC50 at PDE4B2 was 39.8 nM. Moreover, the IC50 on PDE3A1 is 3980 nM.

The molecule `COc1ccc(C2=NN(C3CCN(CC(=O)N4CCN(C)CC4)CC3)C(=O)CC2)cc1OC.Cl.Cl` [Compound 28, 6-(3,4-Dimethoxy-phenyl)-2-{1-[2-(4-methyl-piperazin-1-yl)-2-oxo-ethyl]-piperidin-4-yl}-4,5-dihydro-2H-pyridazin-3-one dihydrochloride] registered a melting point of 194 to 199 °C. Also, on PDE4B2, the IC50 was 20 nM. For the same molecule, on PDE3A1, the IC50 is above 10000 nM.

With `COc1ccc(OC)c(S(=O)(=O)N2CCC(N3N=C(c4ccc(OC)c(OC)c4)CCC3=O)CC2)c1` [Compound 17], at PDE4 (cAMP-specific), the “PDE4 Inhibition [measured as −logIC50 (mol/l)]” value was 7.8 -log(mol/l). Further, at PDE3 (cGMP-inhibited), the “PDE3 Inhibition [measured as −logIC50 (mol/l)]” value is recorded as 6.8 −log(mol/l) (pIC50).

For the molecule `COc1ccc(C2=NN(C3CCN(C(=O)CN4CCN(c5ccncc5)CC4)CC3)C(=O)CC2)cc1OC` [Compound 29, 6-(3,4-Dimethoxy-phenyl)-2-{1-[2-(4-pyridin-4-yl-piperazin-1-yl)-ethanoyl]-piperidin-4-yl}-4,5-dihydro-2H-pyridazin-3-one dihydrochloride], the values for the IC50 on PDE4B2 and on PDE3A1 were 15.8 nM and 3160 nM, respectively.

Consider `COc1ccc(C2=NN(C3CCN(C(=O)c4c(Cl)cc(Cl)cc4Cl)CC3)C(=O)CC2)cc1OC` [Compound 25, 6-(3,4-Dimethoxy-phenyl)-2-{1-[1-(2,4,6-trichloro-phenyl)-methanoyl]-piperidin-4-yl}-4,5-dihydro-2H-pyridazin-3-one], for which the melting point is 156 to 159 °C. For the same molecule, the IC50 at PDE4B2 was 2.51 nM. Further, the IC50 on PDE3A1 was 15.8 nM.

As to `COc1ccc(C2=NN(C3CCN(C(=O)c4ccccc4)CC3)C(=O)CC2)cc1OC` [Compound 23, 6-(3,4-Dimethoxy-phenyl)-2-[1-(1-phenyl-methanoyl)-piperidin-4-yl]-4,5-dihydro-2H-pyridazin-3-one], the melting point fell in the range of 152 to 154 °C. Besides, the IC50 at PDE4B2 was 7.94 nM. Also, the IC50 on PDE3A1 is 126 nM.
